{
  "source": "patent US8198317B2",
  "about": "“Methylenedioxy phenolic compounds and their use to treat disease” (The Ohio State University Research Foundation, priority 2008, dated 2012)",
  "key": {"C57Bl/6 mice": {"tested_on": "C57Bl/6 mice", "test": "SREBP-2, LDLR and LDL in vivo in mice", "parameters": "species or system mouse", "details": "20 mg/kg/day intraperitoneally, two weeks", "protocol": "To study the effect of INV-75 on SREBP activity in vivo experiment was performed as follows: C57bl/6 mice (6/group) were intraperitoneally injected with INV-75 (20 mg/kg/day, for two weeks). The binding activity of SREBP2 in nuclear proteins of liver homogenates was measured by electrophoretic migration shift assay (EMSA). Simultaneously multiple genes involved in cholesterol synthesis and regulation, apolipoprotein gene expression and expression of PCSK9 (Proprotein convertase subtilisin/kexin type 9) were also studied in the liver. PCSK9 is known to regulate LDL receptor expression by binding to the epidermal growth factor-like repeat A (EGF-A) domain of the low-density lipoprotein receptor (LDLR), inducing LDLR degradation."}, "SREBP-2 [1]": {"tested_on": "SREBP-2", "test": "SREBP-2 precursor and mature form by western analysis in HepG2 cells", "type": "cell-based, human", "details": "HepG2, 1 hour", "protocol": "FIG. 5C is a graph showing in vitro time course SREBP2 activation measured by the assessment of the mature form with INV-75 in the cytoplasm of treated cells. HepG2 cells were stimulated with INV-75 (0.1 mM) for four hours and the mature and precursor forms of SREBP2 was measured by western blot analysis. A total of three experiments were performed. *, p<0.01 by ANOVA compared to vehicle. The corresponding western blot is depicted on the right. Time is in hours on the right.\nFIG. 5D is a graph showing dose dependent effects of INV-75 on SREBP2 activation assessed with mature form INV-75. HepG2 cells were stimulated with multiple concentrations of INV-75 for 1 hour and the mature and precursor forms of SREBP2 was measured by western blot analysis. A total of three experiments were performed. *, p<0.01 by ANOVA compared to vehicle. Dose of INV-75 is log molar concentration.\n(§1) A family of transcription factors designated SREBP (sterol regulatory element binding proteins) regulate synthesis of cholesterol and fatty acids. […] The time course with this dose and dose dependence was analyzed. Next we assessed the expression of both precursor and mature form of SREBP-2 in the cytoplasm by western analysis. Both time course and dose dependence of mature form of SREBP-2 was analyzed."}, "Acetyl-CoA Oxidase (ACO)": {"tested_on": "Acetyl-CoA Oxidase (ACO)", "test": "ACO mRNA (PPARα regulated gene) by RT-PCR in HepG2 cells", "type": "cell-based, human", "details": "HepG2, dose dependent and time dependent", "protocol": "ACO is a PPAR-α regulated gene. HepG2 cells were stimulated by INV 75 (100 μM) for the indicated time, the mRNA expression level of ACO was analyzed by real-time RT-PCR. n=3. *, p<0.05 vs 0.\nCells were stimulated with INV-75 for 4 hours, and mRNA expression level of acetyl co-enzyme A oxidase (ACO) analyzed by real-time RT-PCR. n=3. *, p<0.05 vs −8.5.\nWe used a reporter gene assay in HepG2 cells to screen for agonists of the peroxisome proliferator-activated receptors. Peroxisome proliferator-activated receptors (PPARs) and other members of the nuclear hormone receptor family are important drug targets for the treatment of metabolic diseases. PPARs play crucial roles in lipid and glucose metabolism, respectively. Therefore, screening methods that help to rapidly identify activators of these receptors should be of considerable value. INV-75 activated a classic PPARα gene, Acetyl-CoA Oxidase (ACO) in a dose dependent and time dependent fashion (FIG. 6A). The time course experiment was performed in presence of INV-75 up to 15 hours. […] We next tested the specificity of INV-75 for PPARα by performing experiments in HepG2 cells transfected with yeast GAL4-PPARα-LBD plasmid+UAS-Luciferase; GAL4-PPARδ-LBD plasmid+UAS-Luciferase and GAL4-PPARα-LBD plasmid+UAS-Luciferase. […]"}, "SREBP-2 [2]": {"tested_on": "SREBP-2", "test": "SREBP2 nuclear binding by EMSA in HepG2 cells", "type": "cell-based, human", "protocol": "FIG. 5A is a graph showing in vitro time course of course of Sterol Regulatory and Binding Protein-2 (SREBP2) activity measurement with INV-75. HepG2 cells were stimulated with INV-75 (0.1 mM) for four hours and the binding activity of SREBP2 to nuclear proteins was measured by electrophoretic migration shift assay (EMSA). A total of three experiments were performed. *, p<0.01 by ANOVA compared to vehicle.\nFIG. 5B is a graph showing the dose dependent effects of INV-75 on SREBP2 activity. HepG2 cells were stimulated with multiple concentrations of INV-75 for 1 hour and binding activity of SREBP2 in nuclear proteins was measured by electrophoretic migration shift assay (EMSA). A total of three experiments were performed. *, p<0.01 by ANOVA compared to vehicle.\nas §1, with “acids. Of these, SREBP-2 mainly regulates cholesterol biosynthesis by alteration of cholesterol synthesis enzymes and LDL receptor expression (SREBP-1c mainly regulates fatty acid synthesis).” for “acids.”"}, "Patients": {"tested_on": "Patients", "test": "Treatment of dyslipidemia in diabetic patients (Example 25)", "type": "in vivo, human", "details": "oral, 12 months", "from_the_text": "Individuals with Type I and Type II diabetes are at risk for future cardiovascular events such as heart attacks, strokes and kidney disease. These individuals often have abnormalities in lipids such as elevations in triglycerides and VLDL cholesterol. They are on treatments such as hypolipidemic drug therapy such as statins and fibrates (Gemfibrozil or Fenofibrate) to lover cholesterol levels in conjunction with glycemia lowering strategies such as Insulin, PPAR γ agents, Metformin or sulfonylurea therapy. In addition to these treatments they will also receive an acceptable dose of a composition comprising a compound of the present invention in an acceptable carrier orally chronically for durations in excess of 12 months. In one study, (3,4-methylenedioxy phenyl acetate (INV 73); 3,4-methylenedioxy-6-nitrophenol (INV 74); 3,4-methylenedioxy-6-nitrophenyl acetate (INV 75); are administered to these individuals. The patients undergo lipid measurements at baseline and at the end of treatment for a 12 month duration. At the end of 12 months of treatment, there is lowering of VLDL cholesterol and a decrease in triglycerides."}, "[3]": {"tested_on": "Watanabe Heritable Hyperlipidemic Rabbits (WHHL)", "test": "Superoxide by dihydroethidium staining of WHHL aorta sections", "type": "in vivo, rabbit"}},
  "data": [
    {"smiles": "CC(=O)Oc1cc2c(cc1[N+](=O)[O-])OCO2", "note": "[INV-75, 3,4-methylenedioxy-6-nitrophenyl acetate]", "values": [
      {"measurement": "LDL", "setting": "C57Bl/6 mice", "value": "significantly lowered"},
      {"measurement": "LDL receptor expression in liver (real-time RT-PCR, western blot)", "setting": "C57Bl/6 mice", "value": "increase"},
      {"measurement": "SREBP2 activation in liver (EMSA)", "setting": "C57Bl/6 mice", "value": "dramatically activated"},
      {"measurement": "other lipoproteins", "setting": "C57Bl/6 mice", "value": "not other lipoproteins"},
      {"measurement": "dose having an effect in increasing the mature form of SREBP-2", "setting": "SREBP-2 [1]", "value": "≥ 10", "unit": "nM"},
      {"measurement": "Acetyl-CoA Oxidase (ACO) gene activation", "setting": "Acetyl-CoA Oxidase (ACO)", "value": "activated"},
      {"measurement": "time to increased nuclear binding of SREBP-2", "setting": "SREBP-2 [2]; HepG2, 0.1 mM", "value": "< 1", "unit": "h"},
      {"measurement": "dose effective in inducing translocation of SREBP-2 to the nucleus", "setting": "SREBP-2 [2]; HepG2, 1 hour", "value": "≥ 100", "unit": "nM"},
      {"measurement": "VLDL cholesterol", "setting": "Patients", "value": "lowering"},
      {"measurement": "triglycerides", "setting": "Patients", "value": "decrease"},
      {"measurement": "basal super oxide production in the aorta (DHE)", "setting": "[3]", "value": "reduction"}
    ]}
  ]
}
